In PMC2711511 (Bioorganic & medicinal chemistry letters, 2008):

Assays:
ERα [1] = target: T1, ERα (Homo sapiens, UniProt P03372); test: estrogen-responsive reporter gene cotransfection assay in HEC-1 cells, ERα
T1 sequence (P03372 1-595): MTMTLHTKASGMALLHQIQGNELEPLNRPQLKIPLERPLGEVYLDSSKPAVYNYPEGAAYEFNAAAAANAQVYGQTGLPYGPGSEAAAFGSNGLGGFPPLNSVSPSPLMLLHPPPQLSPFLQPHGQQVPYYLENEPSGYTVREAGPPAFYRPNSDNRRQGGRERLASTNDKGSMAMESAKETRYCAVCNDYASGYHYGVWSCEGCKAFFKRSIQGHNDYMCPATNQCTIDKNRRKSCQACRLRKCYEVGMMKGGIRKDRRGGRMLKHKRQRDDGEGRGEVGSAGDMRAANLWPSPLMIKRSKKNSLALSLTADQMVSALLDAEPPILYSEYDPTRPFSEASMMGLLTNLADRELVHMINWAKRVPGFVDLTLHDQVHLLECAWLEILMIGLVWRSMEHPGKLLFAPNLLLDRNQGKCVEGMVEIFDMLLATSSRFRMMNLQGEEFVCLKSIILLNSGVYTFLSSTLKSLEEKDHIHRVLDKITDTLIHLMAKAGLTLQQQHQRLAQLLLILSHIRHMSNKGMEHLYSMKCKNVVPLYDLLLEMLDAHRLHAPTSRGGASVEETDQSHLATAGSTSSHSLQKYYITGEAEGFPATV

ERα [2] = target: T1, ERα; settings: cited from earlier work
ERα [3] = target: T1, ERα; settings: cited from earlier work; remark: listed apart in the source
ERα [4] = target: T1, ERα; test: competitive radiometric binding assay, ERα

For Cc1c(-c2ccc(O)cc2)nn(-c2ccc(O)cc2)c1-c1ccc(OCCN2CCCCC2)cc1 [MPP, Methyl-piperidino-pyrazole], the “ERα partial agonist activity” value (ERα [1]) was “residual, low ERα partial agonist activity”.

In the case of CCCc1c(-c2ccc(O)cc2)nn(-c2ccc(O)cc2)c1-c1ccc(O)cc1 [PPT, propyl-pyrazole-triol], the “agonist potency on ERα versus ERβ” value (ERα [2]) is given as “ca. 1000 fold” and the “affinity on ERα versus ERβ” value (ERα [3]) is given as “ca. 1000 fold”.

In the case of Cc1c(-c2ccc(O)cc2)nn(-c2ccc(O)cc2)c1-c1ccc(CCCN2CCCCC2)cc1 [compound 1], the “ERα partial agonist activity” value (ERα [1]) is reported as “lacks” and the “ERα selectivity relative to that of the triol agonist MPT” value (ERα [4]) is reported as “about 2.3 fold”.

For Cc1c(-c2ccc(O)cc2)nn(-c2ccc(O)cc2)c1-c1ccc(/C=C/C(=O)N2CCCCC2)cc1 [compound 2], the “binding (in words)” value (ERα [4]; compared with MPP and 1) was “markedly lower”.
